According to US4419348A, “Anthracycline glycoside compositions, their use and preparation” (priority 1981, dated 1983):
Entries after “also recorded” stand apart in the source; their conditions may differ. Where a name gives a salt, the structure may show the parent alone.

Tests used:
[1] = Electron microscopy of cardiac tissue (cardiotoxicity); format: in vivo, DBA/2 mice; conditions: 15 mg/kg i.v.; day three, five and seven; listed as free Adriamycin, hydrochloride
Procedure: To determine whether the reduced cardiac uptake of Adriamycin in cardiolipin complex encapsulated liposomes prevented cardiotoxicity, electron microscope studies of this organ were performed. DBA/2 mice were injected i.v. with free drug or drug entrapped in cardiolipin complex encapsulated liposomes at a dose of 15 mg/kg. Three mice in each group were sacrificed by cervical dislocation on day three, five and seven and hearts were immediately removed and placed in physiological saline. The apex of the left ventricle with part of the septum was dissected out and minced into one cubic mm blocks and fixed in 2.5% glutaraldehyde buffered with 0.1 M cacodylate, pH 7.2 for two hours at room temperature. The specimens were rinsed in buffer, osmicated in Bennett and Luft's collidin buffered osmium tetroxide, dehydrated in graded ethanols and acetone, and embedded in Epon. For electron microscopy, preliminary 1 μm Epon sections were stained with alkaline toluidine blue and appropriate areas were chosen for ultrathin sectioning, following which random sections were taken on 200 mesh copper grids and stained with uranyl acetate and lead citrate. A JEOL 100 S Electron microscope at an accelerating voltage of 80 KeV was utilized for viewing the sections.

[2] = in vivo; cited from earlier work
[3] = pharmacokinetic studies; cited from earlier work
[4] = in vivo; conditions: mouse, iv, 4 mg/kg
Procedure: The physiologic disposition of free Adriamycin and of liposome encapsulated Adriamycin cardiolipin complex was determined in DBA/2 mice weighing 20-25 gm. Mice were injected with free Adriamycin and Adriamycin-cardiolipin complex encapsulated in liposomes via the tail vein at a dose of 4 mg/kg and at 2% body weight. At sequential time points from 5 minutes to 24 hours after drug administration, mice were bled through orbital sinus in hepanized tubes. Plasma was separated immediately and stored at -20° C. Four mice in each treatment group were killed by cervical dislocation and heart, liver, kidney, spleen, lungs and small intestine were rapidly excised, rinsed in 0.9% NaCl and stored at -20° C. until assayed.
Briefly, plasma was extracted with 5 volumes of 0.3 N HCl-50% ethanol and tissues were homogenized with 20 volumes of the acid alcohol. Plasma and tissue homogenates were centrifuged at 15,000 rpm for 10 minutes and the clear supernatant was assayed fluorometrically in a Perkin Elmer equipment at 470 nm excitation and 585 nm emission. Control tissues obtained from mice treated with blank liposomes were read similarly in the fluorometer to correct for any endogenous fluorescence. Fresh Adriamycin standards were prepared in ) 0.3 N HCl--50% ethanol each day to calculate the concentration of Adriamycin in the tissue samples.

[5] = system: murine P388 ascitic leukemia; assay: Antitumor activity against P388 ascitic leukemia, survival; format: in vivo, DBA/2 mice; conditions: 4 mg/kg i.p., 24 hours after 1×10^5 P388 cells i.p.
Procedure: To determine whether encapsulation of Adriamycin cardiolipin complex into liposomes reduced the antitumor activity of the drug, the effectiveness of liposomes-encapsulated Adriamycin cardiolipin complex against the murine P388 ascitic leukemia in DBA/2 mice was studied. Mice were injected i.p with 1×10^5 cells of P388 leukemia. Twenty-four hours after tumor implanation, mice were administered intraperitoneally free Adriamycin or cardiolipin complex-encapsulated liposome at a dose of 4 mg/kg. Control mice received 0.9% NaCl or blank liposomes representing the same concentration of lipids as used to encapsulate Adriamycin cardiolipin complex. All injections were made on 2% body weight basis. Mice were weighed on day of injection, doses of drugs were calculated on body weight basis, and the survival time of mice was recorded in days.
Mice weighing 20 to 25 g were given i.p. injections of 10^5 cells and 24 hours later free or cardiolipin complex-encapsulated liposome Adriamycin was administered.

Row | SMILES | myocardial toxic damage by electron microscopy [1] | cumulative dose correlated with cumulative myocardial damage [2] | uptake by heart muscle (in words) [3] | Cmax [4] | Tmax [4] | T/C (Treated vs. Control), survival [5] | cardiotoxicity (in words) [2]
1 | COc1cccc2c1C(=O)c1c(O)c3c(c(O)c1C2=O)C[C@@](O)(C(=O)CO)C[C@@H]3O[C@H]1C[C@H](N)[C@H](O)[C@H](C)O1 [Adriamycin, doxorubicin hydrochloride] | loss and fragmentation of myofilaments with concomitant clearing of organelles and swelling of sarcoplasmic areas; also recorded: degenerative changes with vacuolation of the smooth endoplasmic reticulum and loss of myofibrils; also recorded: Progression of damage could be seen with greater intensity on day 7 | > 500 mg/m^2 | taken up avidly and preferentially by heart muscle | 8300 ng/g | 30 min | 132% | 
2 | COc1cccc2c1C(=O)c1c(O)c3c(c(O)c1C2=O)C[C@@](O)(C(C)=O)C[C@@H]3O[C@H]1C[C@H](N)[C@H](O)[C@H](C)O1 [daunorubicin] |  |  |  |  |  |  | cardiotoxic effects
